B1: LBT-GPPP-S-Peptide (peptide)
peptide: GDYNKDGWYEELELGPPPKETAAAKFERQHMDSSTSAA
notes: also called LBT-S-peptide fusion; LBT tagged S-peptide analog
B2: RNAse S-protein (protein)
chain: SSSNYCNQMMKSRNLTKDRCKPVNTFVHESLADVQAVCSQKNVACKNGQTNCYQSYSTMSITDCRETGSSKYPNCAYKTTQANKHIIVACEGNPYVPVHFDASV

Tests used:
[1] = Tb^3+ affinity of LBT-S-peptide fusions by isothermal titration calorimetry; format: binding
Excerpt: The affinity of the LBT site for terbium in the context of the fusion peptide was also unchanged when compared with the unmodified LBT sequences with affinities in the low μM range.

[2] = Steady-state terbium fluorescence of LBT-S-peptide fusions compared to LBT1; format: physicochemical
Excerpt: Steady-state fluorescence experiments of the LBT-S-peptide fusions indicated minimal impact of the fusion on the terbium fluorescence compared to LBT1 (see Table 2).

[3] = Tb^3+ binding affinity of the disulfide constrained LBT
Method: Affinity is determined by titration with lanthanide and detection using fluorescence, circular dichroism, NMR or calorimetry. In the case of tightly binding sequences, it may be necessary to employ competition experiments.
The disulfide constained LBT, ACA-[…]-CAA (known as CC2) binds to Tb^3+ with a KD of 300 nM, an order of magnitude more tightly than other reported Ca-binding peptides. (Kanellis, et al. Arch. Biochem. Biophys. 1983, 220, 530-540; Lopez, et al. Proc. Natl. Acad. Sci. USA 2002, 99, 1298-1303).

[4] = Lanthanide affinity of free LBT and HIS-LBT-Ub by calorimetry; format: binding; details: read-out: KD for lanthanide ions
Excerpt: The purified LBT-protein conjugates were further studied to assess whether the fluorescence and binding properties of the LBT were preserved in the protein conjugates.

RNAse S-protein = molecular target: T1, RNAse S-protein (bovine, UniProt P61823 47-150); assay: isothermal titration calorimetry
T1 construct: range 21-124; Numbers count on mature RNAse A; also called Pro-S
T1 sequence (looked up): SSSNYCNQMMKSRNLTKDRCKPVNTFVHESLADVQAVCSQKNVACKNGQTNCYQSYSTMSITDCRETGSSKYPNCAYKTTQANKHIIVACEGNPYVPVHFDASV

LBT-GPPP-S-Peptide = molecular target: T2, LBT-GPPP-S-Peptide
T2 chain: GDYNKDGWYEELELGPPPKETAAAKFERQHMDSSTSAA

[5] = read-out: KD Tb^3+ S-Peptide, fusion peptide alone
[6] = read-out: KD Tb^3+ [S-Peptide/S-protein], peptide complexed with S-protein

Molecule | Kd [1, 5] [µM] | Kd [1, 6] [µM] | Fluorescence Relative to LBT1 [2] [%] | further results
CSCC[C@H](NC(=O)[C@H](Cc1c[nH]cn1)NC(=O)[C@H](CCC(N)=O)NC(=O)[C@H](CCCNC(=N)N)NC(=O)[C@H](CCC(=O)O)NC(=O)[C@H](Cc1ccccc1)NC(=O)[C@H](CCCCN)NC(=O)[C@H](C)NC(=O)[C@H](C)NC(=O)[C@H](C)NC(=O)[C@@H](NC(=O)[C@H](CCC(=O)O)NC(=O)[C@H](CCCCN)NC(=O)[C@@H]1CCCN1C(=O)[C@@H]1CCCN1C(=O)[C@@H]1CCCN1C(=O)CNC(=O)[C@H](CC(C)C)NC(=O)[C@H](CCC(=O)O)NC(=O)[C@H](CC(C)C)NC(=O)[C@H](CCC(=O)O)NC(=O)[C@H](CCC(=O)O)NC(=O)[C@H](Cc1ccc(O)cc1)NC(=O)[C@H](Cc1c[nH]c2ccccc12)NC(=O)CNC(=O)[C@H](CC(=O)O)NC(=O)[C@H](CCCCN)NC(=O)[C@H](CC(N)=O)NC(=O)[C@H](Cc1ccc(O)cc1)NC(=O)[C@H](CC(=O)O)NC(=O)CN)[C@@H](C)O)C(=O)N[C@@H](CC(=O)O)C(=O)N[C@@H](CO)C(=O)N[C@@H](CO)C(=O)N[C@H](C(=O)N[C@@H](CO)C(=O)N[C@@H](C)C(=O)N[C@@H](C)C(=O)O)[C@@H](C)O [LBT-GPPP-S-Peptide] | 6.6 | 6.7 | 96 | 
CSCC[C@H](NC(=O)[C@H](Cc1c[nH]cn1)NC(=O)[C@H](CCC(N)=O)NC(=O)[C@H](CCCNC(=N)N)NC(=O)[C@H](CCC(=O)O)NC(=O)[C@H](Cc1ccccc1)NC(=O)[C@H](CCCCN)NC(=O)[C@H](C)NC(=O)[C@H](C)NC(=O)[C@H](C)NC(=O)[C@@H](NC(=O)[C@H](CCC(=O)O)NC(=O)[C@H](CCCCN)NC(=O)[C@@H]1CCCN1C(=O)[C@@H]1CCCN1C(=O)[C@H](CC(C)C)NC(=O)[C@H](CCC(=O)O)NC(=O)[C@H](CC(C)C)NC(=O)[C@H](CCC(=O)O)NC(=O)[C@H](CCC(=O)O)NC(=O)[C@H](Cc1ccc(O)cc1)NC(=O)[C@H](Cc1c[nH]c2ccccc12)NC(=O)CNC(=O)[C@H](CC(=O)O)NC(=O)[C@H](CCCCN)NC(=O)[C@H](CC(N)=O)NC(=O)[C@H](Cc1ccc(O)cc1)NC(=O)[C@H](CC(=O)O)NC(=O)CN)[C@@H](C)O)C(=O)N[C@@H](CC(=O)O)C(=O)N[C@@H](CO)C(=O)N[C@@H](CO)C(=O)N[C@H](C(=O)N[C@@H](CO)C(=O)N[C@@H](C)C(=O)N[C@@H](C)C(=O)O)[C@@H](C)O [LBT-PP-S-Peptide] | 3.3 | 9.6 | 86 | 
ACA-DYNKDGWYEELE-CAA [CC2, cysteine constrained variant of LBT1] |  |  |  | Kd [3]: 0.3 µM
GDYNKDGWYEELEL [LBT1] |  |  |  | KD Tb^3+ S-Peptide ([1]; fusion peptide alone): low μM; Kd [4]: 5 µM
B1 |  |  |  | Kd (RNAse S-protein): 0.3 µM
B2 |  |  |  | catalytic activity of the reconstituted enzymes (cleavage of a fluorescent RNA substrate) (LBT-GPPP-S-Peptide): the S-protein/LBT-S-peptide construct has similar catalytic activity to the native RNAse S in the absence of Tb^+3; catalytic activity of the reconstituted enzymes (cleavage of a fluorescent RNA substrate) (LBT-PP-S-Peptide): the S-protein/LBT-S-peptide construct has similar catalytic activity to the native RNAse S in the absence of Tb^+3
